Assay results taken from patent publication US20130065818A1, “Arylamide Compounds And Compositions And Uses Thereof” (POLYMEDIX, priority 2006, published 2013).
Values after ≈ are worked out from the molar mass of the structure shown. Where two headings read alike, the source gives them in different places.

Assays:
[1] = tested on: Streptococcus viridans group; assay: MIC, 25 ocular isolates, broth microdilution (Example 8); assay type: cell-based
Method: (§1) Mueller-Hinton Broth supplemented with 2% lysed horse blood in tubes was inoculated with 25 ocular isolates of Streptococcus pneumoniae, Streptococcus viridans group, and Moraxella species (including Moraxella catarrhalis) plus two controls (Staphylococcus aureus and E. coli) and incubated at 37° C. overnight. Additionally, Mueller-Hinton Broth in tubes was inoculated with two controls (Staphylococcus aureus and E. coli) and incubated at 37° C. overnight on a shaker set at 250 rpm.
(§2) On the day of testing, a 640 μg/ml (1280 μg/ml for Serratia marcescens and Pseudomonas aeruginosa) concentration was prepared from a 1% stock solution in 0.01% acetic acid, 0.2% BSA in polypropylene tubes.
(§3) Serial doubling dilutions in 0.01% acetic acid, 0.2% BSA in 96 well polypropylene plates, which are used as reservoirs for the inoculation of the test plates, were carried out to obtain serial dilutions of test agents at 10 times the required test concentrations: 640, 320, 160, 80, 40, 20, 10, 5, 2.5, 1.25, and 0.625 μg/ml (1280, 640, 320, 160, 80, 40, 20, 10, 5, 2.5, and 1.25 μg/ml for Serratia marcescens and Pseudomonas aeruginosa).
(§4) Ten μl of diluted 10×test agents was added to each well of one row of the 96 well polypropylene plates from column 2 to column 12 (column 1 is a control for bacteria alone, with no peptide). Test agent concentrations in columns 2-12 were as follows: 64, 32, 16, 8, 4, 2, 1, 0.5, 0.25, 0.125, and 0.0625 μg/ml (128, 64, 32, 16, 8, 4, 2, 1, 0.5, 0.25, and 0.125 μg/ml for Serratia marcescens and Pseudomonas aeruginosa). The same peptide was in each of the 8 rows. One plate contained dilutions of one test agent and 8 bacterial isolates.
(§5) On the day of testing, the overnight bacterial broth cultures of Streptococcus pneumoniae, Streptococcus viridans and Moraxella species (including Moraxella catarrhalis) plus two controls (Staphylococcus aureus and E. coli) were diluted in 5 ml of trypticase soy broth to yield turbidity equal to a 0.5 McFarland standard. The final inoculum for MIC testing for Streptococcus pneumoniae, Streptococcus viridans and Moraxella species (including Moraxella catarrhalis) was achieved by placing 0.1 ml of the turbidity adjusted sample to 5 ml of Mueller-Hinton broth containing 2% lysed horse red blood cells.
(§6) Ninety μl of the bacterial suspensions was dispensed in each well from column 1 to column 12. Each bacterial isolate was placed in one row of a 96 well polypropylene plate containing the test agents. The plates were placed on shaker at 15 minutes at room temperature, and then incubated at 37° C. overnight. MICs were determined visually as the lowest concentration of drug that inhibits visible bacterial growth.

Streptococcus pneumoniae = assay: as above; assay type: cell-based
Method: as §1, §2, §3, §4, §5, §6

Work on `N=C(N)NCCCCC(=O)Nc1cc(C(F)(F)F)cc(NC(=O)c2cc(C(=O)Nc3cc(C(F)(F)F)cc(NC(=O)CCCCNC(=N)N)c3O[C@@H]3CCNC3)ncn2)c1O[C@@H]1CCNC1` [Oligomer 4] yielded an MIC ([1]; Streptococcus viridans, isolate 17—E362, read-out: MIC) of 4 µg/mL (≈ 4.27 µM), an MIC ([1]; Streptococcus viridans, isolate 18—E359, read-out: MIC) of 4 µg/mL (≈ 4.27 µM) and an MIC ([1]; Streptococcus viridans, isolate 19—E348, read-out: MIC) of 8 µg/mL (≈ 8.54 µM). For the same molecule, the MIC ([1]; Streptococcus viridans, isolate 20—E344, read-out: MIC) was 4 µg/mL (≈ 4.27 µM), the MIC ([1]; Streptococcus viridans, isolate 21—E308, read-out: MIC) was 4 µg/mL (≈ 4.27 µM) and the MIC ([1]; Streptococcus viridans, isolate 22—E294, read-out: MIC) was 4 µg/mL (≈ 4.27 µM). For the same molecule, the MIC ([1]; Streptococcus viridans, isolate 23—E292, read-out: MIC) was 4 µg/mL (≈ 4.27 µM), the MIC ([1]; Streptococcus viridans, isolate 24—E285, read-out: MIC) was 4 µg/mL (≈ 4.27 µM) and the MIC ([1]; Streptococcus viridans, isolate 25—E265, read-out: MIC) was 1 µg/mL (≈ 1.07 µM). For the same molecule, the MIC ([1]; Streptococcus viridans, n=25 per group, read-out: Median MIC) was 4 µg/mL (≈ 4.27 µM), the MIC90 ([1]; Streptococcus viridans, 25 isolates, Summary of Results, >64 was Replaced with 128, read-out: MIC90) was 8 µg/mL (≈ 8.54 µM) and the MIC50 ([1]; Streptococcus viridans, 25 isolates, Summary of Results, read-out: MIC50) was 4 µg/mL (≈ 4.27 µM). It also gave an MIC ([1]; Streptococcus viridans, 25 isolates, Summary of Results, read-out: Median MIC) of 4 µg/mL (≈ 4.27 µM), an MIC50 ([1]; n=25 per group) of 4 µg/mL (≈ 4.27 µM) and an MIC90 ([1]; n=25 per group) of 8 µg/mL (≈ 8.54 µM). The “Range of MICs” value ([1]; n=25 per group) was 1 to 32 µg/mL, the MIC50 (Streptococcus pneumoniae; 25 isolates, Row 13) was 1 µg/mL (≈ 1.07 µM) and the MIC90 (Streptococcus pneumoniae; 25 isolates, Row 22) was 2 µg/mL (≈ 2.13 µM). For the same molecule, the “Range of MICs” value (Streptococcus pneumoniae; 25 isolates, Summary of Results, >64 was Replaced with 128) was 0.5 to 128 µg/mL, the MIC (Streptococcus pneumoniae; Streptococcus pneumoniae, 25 ocular isolates, Mueller-Hinton broth with 2% lysed horse red blood cells, read-out: Median MIC) was ≤ 4 µg/mL and the MIC (Streptococcus pneumoniae; Streptococcus pneumoniae, isolate 1—B1386, read-out: MIC) was > 64 µg/mL. It also gave an MIC (Streptococcus pneumoniae; Streptococcus pneumoniae, isolate 2—B1380, read-out: MIC) of 1 µg/mL (≈ 1.07 µM), an MIC (Streptococcus pneumoniae; Streptococcus pneumoniae, isolate 3—B1378, read-out: MIC) of 1 µg/mL (≈ 1.07 µM) and an MIC (Streptococcus pneumoniae; Streptococcus pneumoniae, isolate 4—B1377, read-out: MIC) of 2 µg/mL (≈ 2.13 µM). The MIC (Streptococcus pneumoniae; Streptococcus pneumoniae, isolate 5—B1373, read-out: MIC) was 1 µg/mL (≈ 1.07 µM), the MIC (Streptococcus pneumoniae; Streptococcus pneumoniae, isolate 6—B1367, read-out: MIC) was 1 µg/mL (≈ 1.07 µM) and the MIC (Streptococcus pneumoniae; Streptococcus pneumoniae, isolate 7—B1355, read-out: MIC) was 2 µg/mL (≈ 2.13 µM). For the same molecule, the MIC (Streptococcus pneumoniae; Streptococcus pneumoniae, isolate 8—B1353, read-out: MIC) was 1 µg/mL (≈ 1.07 µM), the MIC (Streptococcus pneumoniae; Streptococcus pneumoniae, isolate 9—B1351, read-out: MIC) was 1 µg/mL (≈ 1.07 µM) and the MIC (Streptococcus pneumoniae; Streptococcus pneumoniae, isolate 10—B1339, read-out: MIC) was 1 µg/mL (≈ 1.07 µM). The MIC (Streptococcus pneumoniae; Streptococcus pneumoniae, isolate 11—B1337, read-out: MIC) was 0.5 µg/mL (≈ 0.534 µM), the MIC (Streptococcus pneumoniae; Streptococcus pneumoniae, isolate 12—B1335, read-out: MIC) was 2 µg/mL (≈ 2.13 µM) and the MIC (Streptococcus pneumoniae; Streptococcus pneumoniae, isolate 13—B1334, read-out: MIC) was 1 µg/mL (≈ 1.07 µM). The MIC (Streptococcus pneumoniae; Streptococcus pneumoniae, isolate 14—B1333, read-out: MIC) was 1 µg/mL (≈ 1.07 µM), the MIC (Streptococcus pneumoniae; Streptococcus pneumoniae, isolate 15—B1255, read-out: MIC) was 0.5 µg/mL (≈ 0.534 µM) and the MIC (Streptococcus pneumoniae; Streptococcus pneumoniae, isolate 16—B1288, read-out: MIC) was 1 µg/mL (≈ 1.07 µM). It also gave an MIC (Streptococcus pneumoniae; Streptococcus pneumoniae, isolate 17—B1287, read-out: MIC) of 1 µg/mL (≈ 1.07 µM), an MIC (Streptococcus pneumoniae; Streptococcus pneumoniae, isolate 18—B1272, read-out: MIC) of 0.5 µg/mL (≈ 0.534 µM) and an MIC (Streptococcus pneumoniae; Streptococcus pneumoniae, isolate 19—B1264, read-out: MIC) of 0.5 µg/mL (≈ 0.534 µM). It also gave an MIC (Streptococcus pneumoniae; Streptococcus pneumoniae, isolate 20—B1252, read-out: MIC) of 1 µg/mL (≈ 1.07 µM), an MIC (Streptococcus pneumoniae; Streptococcus pneumoniae, isolate 21—B1245, read-out: MIC) of 0.5 µg/mL (≈ 0.534 µM) and an MIC (Streptococcus pneumoniae; Streptococcus pneumoniae, isolate 22—B1211, read-out: MIC) of 1 µg/mL (≈ 1.07 µM). The MIC (Streptococcus pneumoniae; Streptococcus pneumoniae, isolate 23—B1213, read-out: MIC) was 1 µg/mL (≈ 1.07 µM), the MIC (Streptococcus pneumoniae; Streptococcus pneumoniae, isolate 24—B1208, read-out: MIC) was 0.5 µg/mL (≈ 0.534 µM) and the MIC (Streptococcus pneumoniae; Streptococcus pneumoniae, isolate 25—B1214, read-out: MIC) was 1 µg/mL (≈ 1.07 µM). It also gave an MIC (Streptococcus pneumoniae; Streptococcus pneumoniae, n=25 per group, read-out: Median MIC) of 1 µg/mL (≈ 1.07 µM), an MIC50 (Streptococcus pneumoniae; Streptococcus pneumoniae, 25 isolates, Summary of Results, read-out: MIC50) of 1 µg/mL (≈ 1.07 µM) and an MIC90 (Streptococcus pneumoniae; Streptococcus pneumoniae, 25 isolates, Summary of Results, read-out: MIC90) of 2 µg/mL (≈ 2.13 µM). The MIC (Streptococcus pneumoniae; Streptococcus pneumoniae, 25 isolates, Summary of Results, read-out: Median MIC) was 1 µg/mL (≈ 1.07 µM), the MIC50 (Streptococcus pneumoniae; n=25 per group) was 1 µg/mL (≈ 1.07 µM) and the MIC90 (Streptococcus pneumoniae; n=25 per group) was 2 µg/mL (≈ 2.13 µM). For the same molecule, the “Range of MICs” value (Streptococcus pneumoniae; n=25 per group) was 0.5 to 128 µg/mL.
